Assay results published in patent US6660473B1, “C-terminal protein tagging” (Phylos, Inc., priority 1999, dated 2003).

What was measured:
[1] = target: ribosomal peptidyl transferase; settings: ribosomal peptidyl transferase site; cited from earlier work
[2] = tested on: stalled translation reaction (myc-dA30 in rabbit reticulocyte lysate); settings: 130 μM added to stalled translation reaction; 500 mM KCl, 20 mM MgCl2; anti-myc immunoprecipitation
Description: Myc dsDNA was generated by standard methods of PCR to include a 5′-T7 promoter for in vitro synthesis of mRNA using T7 polymerase and a deletion mutant of the tobacco mosaic virus 5′-UTR to induce efficient translation initiation in rabbit reticulocyte lysates. The 3′-end of the myc construct was devoid of stop codons to prevent protein release from the ribosome.
Transcription of the myc PCR product (using the MegaSHORTscript kit, Ambion) gave large quantities of RNA using T7 RNA polymerase. Purified RNA was then subjected to a splinted ligation reaction with a 5′-phosphorylated dA30 oligonucleotide catalyzed by T4 DNA ligase. The 3′-dA30 region facilitates ribosomal stalling and thereby increases the proportion of RNA-ribosome-protein complexes available for labeling. The purified myc-dA30 construct was then translated in rabbit reticulocyte lysate (Ambion) with ^35S-methionine and stalled under high salt conditions (500 mM KCl, 20 mM MgCl2).
Biotin-TEG-dCdCdA was used as a control. The radiolabled myc peptide was then isolated by immunoprecipitation with an anti-myc monoclonal antibody (Chemicon) and protein A sepharose (Sigma). Control and C-terminally-labeled peptide were then applied to a microscope slide prefunctionalized with NeutrAvidin™ (Pierce).

[3] = tested on: stalled translation reaction (10Fn3-dA30 in rabbit reticulocyte lysate); settings: labeling as in the myc experiment; Co2+-NTA purification

For `COc1ccc(C[C@H](N)C(=O)N[C@H]2[C@@H](O)[C@H](n3cnc4c(N(C)C)ncnc43)O[C@@H]2CO)cc1` [puromycin], the “Kd of unmodified puromycin” value [1] is given as “in the micromolar range”.

For Biotin-TEG-dCdC-puromycin, the “immobilization of 35S-labeled myc epitope on NeutrAvidin slide (phosphorimaging)” value [2] was “biotin-dependent immobilization of myc epitope to the chip surface” and the “immobilization of radiolabeled 10Fn3 on NeutrAvidin-spotted chip (phosphorimaging)” value [3] was “presence of radiolabeled ^10Fn3”.

For Biotin-TEG-dCdCdA, the “immobilization of 35S-labeled myc epitope on NeutrAvidin slide (phosphorimaging)” value [2] was “no significant label”.
